# According to patent US20250206717A1, “COMPOUND HAVING ANTI-TUMOR ACTIVITY AND USE THEREOF” (Innovstone Therapeutics Limited, priority 2021, published 2025):
# Structures can show the parent of a compound that is named as a salt.
# What was measured:
# [1] = molecular target: PRMT5 (Homo sapiens (Human), UniProt O14744); experiment: Inhibitory activity against PRMT5 enzyme activity ([3H]-SAM FlashPlate assay); format: biochemical; details: PRMT5 5 nM, [3H]-SAM 0.3 μM, polypeptide substrate 100 nM; read-out: measured enzyme inhibitory IC50 value (PRMT5 enzyme activity)
# [2] = tested on: human B-cell non-Hodgkin lymphoma Z-138 cells; experiment: Growth inhibitory activity on Z-138 cells (CellTiter-Glo, 5 days); format: cell-based; details: 5 days (120H), read-out: measured cell growth inhibitory IC50 value (Z-138 cell growth)
# Description: Vi-Cell XR cell counter, Beckmancoulter.
# Cells were revived and cultured in an incubator at 37° C./5% CO2 according to the above-mentioned culturing conditions.
# Periodical passaging was performed, and cell lines with good growth status in about two generations were taken for plating.
# I. Cells were taken from the incubator. The cell suspension was transferred to a 50 mL centrifuge tube, and centrifuged at
# 800-1000 rpm for 3-5 minutes. The supernatant was discarded. An appropriate volume of culture medium was added to the centrifuge tube and gently beated to resuspend the cells evenly. Cells were counted using a Vi-Cell XR cell counter.
# II. According to the measured cell density, the cell suspension was adjusted to an appropriate concentration.
# III. The cell suspension was added into the 384-well plate, 40 μL/well, containing 700 cells/well, and an equal volume of culture medium without cells was added to the blank control well.
# I. A compound was dissolved in 100% DMSO to formulate a 10 mM stock solution.
# II. The stock solution with a concentration of 10 mM was taken, diluted with DMSO to a 2 mM solution, which was used as the starting concentration to perform a 4× gradient dilution with DMSO for 9 points.
# III. 200 nL of the above compound solutions in gradient concentrations were taken and added to each well respectively.
# To the blank control well and the DMSO control well were respectively added 200 nL DMSO solutions, and the final concentration of DMSO was 0.5%.
# IV. The cell plate was incubated in a carbon dioxide incubator for 5 days (120H).
# I. CellTiter-Glo buffer was thawed and allowed to come to room temperature.
# II. A lyophilized CellTiter-Glo substrate was allowed to come to room temperature.
# III. CellTiter-Glo buffer was added to a bottle of CellTiter-Glo substrate to dissolve the substrate to formulate a CellTiter-Glo working solution.
# IV. The working solution was slowly vortexed to fully dissolve the contents.
# V. The cell culture plate was taken and allowed to equilibrate to room temperature.
# VI. […] of a mixed CellTiter Glo reagent was added to each well, oscillated for 10 minutes in the dark, and incubated for 10 minutes.
# The inhibition rates (IRs) of the detected compounds were calculated according to the following formula:
# IR (%)=(1−(RLUcompound−RLUblank control)/(RLUDMSO−RLUblank control)*100%,
# XLFit was used to plot the efficacy inhibition rate curve, and the IC50 value was calculated using the following 4-parameter model: [fit=(A±((B−A)/(1+((C/x)^D))))].
# [3] = Phase I, adult patients with solid tumors; cited from earlier work
# [4] = tested on: Xenograft models of small cell lung cancer (SCLC), non-small cell lung cancer (NSCLC), acute myeloid leukemia (AML) and non-Hodgkin's lymphoma; details: cited from earlier work
# Chain of PRMT5 (O14744 2-637): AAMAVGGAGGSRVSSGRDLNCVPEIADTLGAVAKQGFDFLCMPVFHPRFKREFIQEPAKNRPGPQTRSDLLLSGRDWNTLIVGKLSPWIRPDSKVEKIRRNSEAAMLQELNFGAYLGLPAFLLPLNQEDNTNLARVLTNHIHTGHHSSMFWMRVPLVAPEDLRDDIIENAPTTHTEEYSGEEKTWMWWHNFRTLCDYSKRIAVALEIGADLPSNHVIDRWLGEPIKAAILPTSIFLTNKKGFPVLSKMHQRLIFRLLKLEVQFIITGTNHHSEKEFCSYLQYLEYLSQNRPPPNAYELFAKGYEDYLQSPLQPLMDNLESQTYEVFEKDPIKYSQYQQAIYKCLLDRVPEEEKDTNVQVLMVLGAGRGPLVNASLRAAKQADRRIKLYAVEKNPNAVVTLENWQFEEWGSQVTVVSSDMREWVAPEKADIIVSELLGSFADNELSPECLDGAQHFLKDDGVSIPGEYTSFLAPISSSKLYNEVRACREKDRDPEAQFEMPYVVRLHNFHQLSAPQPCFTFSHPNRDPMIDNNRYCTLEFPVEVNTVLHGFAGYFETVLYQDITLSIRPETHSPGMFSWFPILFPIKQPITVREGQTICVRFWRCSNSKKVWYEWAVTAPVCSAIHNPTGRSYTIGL
# Chain of PRMT5 (Q9BQA1 2-342 partner): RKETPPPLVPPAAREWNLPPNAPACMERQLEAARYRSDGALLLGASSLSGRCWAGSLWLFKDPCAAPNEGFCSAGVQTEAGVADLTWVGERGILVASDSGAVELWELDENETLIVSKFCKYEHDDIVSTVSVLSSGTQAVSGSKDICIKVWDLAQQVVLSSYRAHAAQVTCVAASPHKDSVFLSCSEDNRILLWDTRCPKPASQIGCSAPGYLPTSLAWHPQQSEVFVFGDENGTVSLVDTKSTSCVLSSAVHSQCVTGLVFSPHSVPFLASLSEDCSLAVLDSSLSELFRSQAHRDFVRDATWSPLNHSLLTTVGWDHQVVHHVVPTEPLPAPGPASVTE
SMILES,IC50 [1] [µM],IC50 [2] [µM],other results
"CC(=O)N1CCC(Oc2cc(C(=O)N3CC[C@H](N4CCc5ccccc5C4)[C@@H](O)C3)ncn2)CC1 (relative stereo) [Example 1, trans-1-(4-((6-(4-(3,4-dihydroisoquinoline-2(1H)-yl)-3-hydroxypiperidine-1-carbonyl)pyrimidine-4-yl)oxy)piperidine-1-yl)ethane-1-one]",0.065,,
COCCCCNc1cc(C(=O)N2CC[C@@H](N3CCc4ccccc4C3)[C@H](O)C2)nc(-c2ccccc2)n1 (stereo in doubt) [Example 45],,1.32,
O=C(c1cc(NC2CCCCC2)nc(-c2ccccc2)n1)N1CC[C@@H](N2CCc3ccccc3C2)[C@H](O)C1 [Example 37],0.0998,,
CC(=O)N1CC(Nc2cc(C(=O)N3CC[C@@H](N4CCc5ccccc5C4)[C@H](O)C3)nc(-c3ccccc3)n2)C1 [Example 39],,0.135,
C=Cc1nc(NC2CCN(C(C)=O)CC2)cc(C(=O)N2CC[C@@H](N3CCc4ccccc4C3)[C@H](O)C2)n1 [Example 46],0.0291,,
CC(=O)N1CCC(Nc2cc(C(=O)N3CC[C@@H](N4CCc5ccccc5C4)[C@H](O)C3)nc(C(=O)N(C)C)n2)CC1 [Example 59],0.107,,
CC(=O)N1CCC(Nc2nc(C(=O)N3CC[C@@H](N4CCc5ccccc5C4)[C@H](O)C3)nc(-c3ccccc3)n2)CC1 [Example 70],0.0664,,
O=C(c1ccncn1)N1CCC(Nc2cc(C(=O)N3CC[C@@H](N4CCc5ccccc5C4)[C@H](O)C3)ncn2)CC1 [Example 170],,0.0628,
O=C(c1ccccn1)N1CCC(Nc2cc(C(=O)N3CC[C@@H](N4CCc5ccccc5C4)[C@H](O)C3)ncn2)CC1 [Example 173],0.0513,,
CC(C)COc1nc(NC2CCN(C(=O)c3ccn(C)n3)CC2)cc(C(=O)N2CC[C@@H](N3CCc4ccccc4C3)[C@H](O)C2)n1 [Example 212],,0.0222,
Cn1cc(N2CCC(Nc3cc(C(=O)N4CC[C@@H](N5CCc6ccccc6C5)[C@H](O)C4)nc(OC4CCCC4)n3)CC2)cn1 [Example 215],,0.157,
CC(C)Oc1nc(NC2CCN(C(=O)c3ccn(C)n3)CC2)cc(C(=O)N2CC[C@@H](N3CCc4ccccc4C3)[C@H](O)C2)n1 [Example 217],,0.0605,
CCC(CC)Oc1nc(NC2CCN(C(=O)c3cnn(C)c3)CC2)cc(C(=O)N2CC[C@@H](N3CCc4ccccc4C3)[C@H](O)C2)n1 [Example 243],,0.0058,
CN(C)CCCOc1nc(NC2COC2)cc(C(=O)N2CC[C@@H](N3CCc4ccccc4C3)[C@H](O)C2)n1 [Example 259],,1.19,
CC(=O)N1CCC(Nc2cc(OC3CCCC3)nc(C(=O)N3CC[C@@H](N4CCc5ccccc5C4)[C@H](O)C3)c2)CC1 [Example 276],,0.111,
"[2H]C1([2H])CN([C@@H]2CCN(C(=O)c3cc(NC4CCN(C(=O)c5ccccc5)CC4)nc(OC(C)C)n3)C[C@H]2O)Cc2ccccc21 [Example 401, (6-((1-(benzoyl)piperidine-4-yl)amino)-2-isopropoxypyrimidine-4-yl)((3R,4R)-4-(3,4-dihydroisoquinoline-2(1H)-yl-4,4-d2)-3-hydroxypiperidine-1-1)methanone]",0.0079,0.016,
CC(=O)N1CCC(Nc2cc(C(=O)NC[C@H](O)CN3CCc4ccccc4C3)ncn2)CC1 [GSK3326595],,,PK in plasma [3]: dose-dependent
Nc1nc2cc(CC[C@H]3C[C@@H](n4ccc5c(N)ncnc54)[C@H](O)[C@@H]3O)ccc2cc1Br [JNJ-64619178],,,tumor growth inhibition [4]: up to 99%

# More lines, main results first:
IC50 [1] [µM],IC50 [2] [µM],SMILES,other results
0.036,,"CC(=O)N1CCC(Nc2cc(C(=O)N3CC[C@@H](N4CCc5ccccc5C4)[C@H](O)C3)nc(C)n2)CC1 [Control Example 2, 1-(4-((6-((3R,4R)-4-(3,4-dihydroisoquinoline-2(1H)-yl)-3-hydroxypiperidine-1-carbonyl)-2-methylpyrimidine-4-yl)amino)piperidine-1-yl)ethanone]",
0.0352,,CC(=O)N1CCC(Nc2cc(C(=O)N3CC[C@H](N4CCc5ccccc5C4)[C@@H](O)C3)nc(-c3ccccc3F)n2)CC1 [Example 12],
,1.36,CC(=O)N1CCC(Nc2cc(C(=O)N3CC[C@@H](N4CCc5ccccc5C4)[C@H](O)C3)nc(-c3cc4ccccc4s3)n2)CC1 [Example 66],
0.11,,CC(=O)N1CCC(Nc2cc(C(=O)N3CC[C@H](N4CCc5ccccc5C4)[C@@H](O)C3)nc(-n3ccnc3)n2)CC1 [Example 73],
0.00697,0.0138,O=C(c1ccc(C(F)(F)F)cc1)N1CCC(Nc2cc(C(=O)N3CC[C@@H](N4CCc5ccccc5C4)[C@H](O)C3)ncn2)CC1 [Example 153],
,0.019,O=C(c1ccccc1)N1CCC(Nc2cc(C(=O)N3CC[C@@H](N4CCc5ccccc5C4)[C@H](O)C3)ncn2)CC1 [Example 158],
,0.0337,O=C(c1ccncc1)N1CCC(Nc2cc(C(=O)N3CC[C@@H](N4CCc5ccccc5C4)[C@H](O)C3)ncn2)CC1 [Example 165],
,0.0115,Cc1ccc(C(=O)N2CCC(Nc3cc(C(=O)N4CC[C@@H](N5CCc6ccccc6C5)[C@H](O)C4)ncn3)CC2)cc1 [Example 171],
0.0205,,O=C(c1cccc(F)c1)N1CCC(Nc2cc(C(=O)N3CC[C@@H](N4CCc5ccccc5C4)[C@H](O)C3)ncn2)CC1 [Example 172],
0.0064,,Cn1cc(C(=O)N2CCC(Nc3cc(C(=O)N4CC[C@@H](N5CCc6ccccc6C5)[C@H](O)C4)nc(OC4CCCC4)n3)CC2)cn1 [Example 193],
0.0045,0.011,O=C(c1cc(NC2CCN(C(=O)c3cccs3)CC2)nc(OC2CCCC2)n1)N1CC[C@@H](N2CCc3ccccc3C2)[C@H](O)C1 [Example 194],
0.0052,0.008,CCC(CC)Oc1nc(NC2CCN(C(=O)c3ccccc3)CC2)cc(C(=O)N2CC[C@@H](N3CCc4ccccc4C3)[C@H](O)C2)n1 [Example 202],
0.0039,0.012,CC(C)Oc1nc(NC2CCN(C(=O)c3cccs3)CC2)cc(C(=O)N2CC[C@@H](N3CCc4ccccc4C3)[C@H](O)C2)n1 [Example 207],
0.0045,,CC(C)COc1nc(NC2CCN(C(=O)c3cnn(C)c3)CC2)cc(C(=O)N2CC[C@@H](N3CCc4ccccc4C3)[C@H](O)C2)n1 [Example 213],
,0.0074,Cn1cc(C(=O)N2CCC(Nc3cc(C(=O)N4CC[C@@H](N5CCc6ccccc6C5)[C@H](O)C4)nc(SC4CCCC4)n3)CC2)cn1 [Example 253],
0.0047,,Cc1ccc(C(=O)N2CCC(Nc3cc(C(=O)N4CC[C@@H](N5CCc6ccccc6C5)[C@H](O)C4)nc(N4CCCC4)n3)CC2)cc1 [Example 315],
,0.0653,CC(=O)N1CCC(Nc2cc(C(=O)N3CC[C@@H](N4CCc5ccccc5C4)[C@H](O)C3)nc(Nc3ccccc3)n2)CC1 [Example 339],
0.0028,0.0123,"COc1nc(NC2CCN(C(=O)c3ccc(C)cc3)CC2)cc(C(=O)N2CC[C@@H](N3CCc4ccccc4C3)[C@H](O)C2)n1 [Example 392, ((3R,4R)-4-(3,4-dihydroisoquinoline-2(1H)-yl)-3-hydroxypiperidine-1-yl)(2-methoxy-6-((1-(4-methylbenzoyl)piperidine-4-yl)amino)pyrimidine-4-yl)methanone hydrochloride]",
